Assay results reported in US11351184B2, “Preparation of Pulsatilla saponin B4 for injection” (priority 2017, dated 2022).

How the values were obtained:
[1] = tested on: Cisplatin-induced Acute Kidney Injury In Mice; test: Effect of B4 by different administration routes on cisplatin-induced acute kidney injury in mice; type: in vivo, ICR mouse; settings: for BUN / Crea / TP / Urine protein: 4 days; for Reduction of effective dose to reverse cisplatin-induced renal injury, injection compared with oral administration: iv 5 mg/kg versus gavage 100 mg/kg
Method: Pulsatilla saponin B4 was orally and intravenously administrated in parallel, the effect of Pulsatilla saponin B4 in different administration routes on acute nephritis in cisplatin (CDDP)-stimulated mouse serum was investigated.
The drugs were all prepared into a solution with a specified concentration under “Test Method” with double distilled water and administered in the prescribed manner.
2.2 Modeling method: models were made at a dose of […] of cisplatin, the mice in normal group were injected with physiological saline intraperitoneally and the mice in other groups were injected with cisplatin intraperitoneally.
2.3 Grouping and administration: Animals were randomly divided into seven groups, 10-12 animals in each group:
(3) Dexamethasone positive group (0.5 mg/kg·body weight), dexamethasone solution was administered by gavage at a dose of 20 ml/kg·body weight;
(4) B4 high-dose group administered intravenously (5 mg/kg·body weight), B4 solution was injected into the tail vein at a dose of 5 ml/kg·body weight;
(5) B4 low-dose group administered intravenously (2.5 mg/kg·body weight), B4 solution was injected into the tail vein at a dose of 5 ml/kg·body weight;
(6) B4 high-dose group administered by gavage (100 mg/kg·body weight), B4 solution was given by gavage at a dose of 20 ml/kg·body weight;
(7) B4 low-dose group administered by gavage (50 mg/kg·body weight), B4 solution was given by gavage at a dose of 20 m/kg·body weight;
Drugs were administered continuously for 4 days from the day of modeling.
Urine was collected 0.5 hours after the last administration and urine protein was measured; blood was collected from the eyeball 1 hour after the administration, and the whole blood of the mice was placed at room temperature for 2 hours, centrifuged at 3500 rpm/min for 15 minutes, 200 μl supernatant was measured by an automatic biochemical analyzer to determine the total protein (TP), urea nitrogen (BUN) and creatinine (Cre).

[2] = Water solubility of Pulsatilla saponin B4; type: physicochemical
[3] = Compatibility test of raw materials and excipients (high temperature and illumination); type: physicochemical
Method: The content of Pulsatilla saponin B4 in the following experimental examples and examples is determined according to the following method:
Chromatographic column: C18, 250 mm×4.6 mm, 5 μm
Mobile phase: acetonitrile-water (26:74) (volume ratio)
An appropriate amount of Pulsatilla saponin B4 control sample was taken, weighed precisely, placed into a 10 ml volumetric flask, added with methanol to dissolve and dilute to the mark, the solution was shaken well and filtered to obtain a solution with 1 mg Pulsatilla saponin B4 control sample/1 ml solution.
About 25 mg of test sample was taken, weighed precisely, placed into a 25 ml volumetric flask, added with the mobile phase to dissolve and dilute to the mark, the solution was shaken well and filtered through a 0.22 μm microporous membrane, the filtrate was taken to obtain the test sample.
10 μl of the test solution was taken and injected into a liquid chromatograph, the chromatogram was recorded. The calculation formula was as follows: […]
Pulsatilla saponin B4 raw material was mixed with various excipients (water for injection, physiological saline, mannitol, lactose, sucrose and glucose) in a ratio of 1:5 (mass), and then placed under the conditions of high temperature (60° C. and 40° C.) and illumination (4500Lux±500), the samples were taken on day 0, 7 and 14 to investigate the purity of Pulsatilla saponin B4 and related substances.

[4] = B4 iv (tail vein) 2.5 mg/kg, serum
[5] = B4 po (gavage) 100 mg/kg, serum
[6] = day 0, raw material:excipient 1:5 (mass)
[7] = day 7, illumination (4500Lux±500)
[8] = day 14, illumination (4500Lux±500)
[9] = dexamethasone 0.5 mg/kg by gavage, serum 1 h after last administration

C=C(C)C1CC[C@]2(C(=O)O[C@@H]3O[C@H](CO[C@@H]4O[C@H](CO)[C@@H](O[C@@H]5O[C@@H](C)[C@H](O)[C@@H](O)[C@H]5O)[C@H](O)[C@H]4O)[C@@H](O)[C@H](O)[C@H]3O)CC[C@]3(C)[C@H](CC[C@@H]4[C@@]5(C)CC[C@H](OC6OC[C@H](O)[C@H](O)[C@H]6O[C@]6(O)O[C@@H](C)[C@H](O)[C@@H](O)[C@H]6O)[C@@](C)(CO)[C@@H]5CC[C@]43C)[C@@H]12 (stereo partly drawn) [Prescription B4, Pulsatilla saponin B4]
BUN [1, 4]: 69.26 ± 45.76 mg/dL
Crea [1, 4]: 29.27 ± 5.66 µmol/L
TP [1, 4]: 47.58 ± 2.50 g/L
Urine protein ([1]; B4 iv (tail vein) 2.5 mg/kg, urine): 1.35 ± 0.39 mg/mL
TP ([1]; B4 iv (tail vein) 5 mg/kg, serum): 46.58 ± 2.25 g/L
BUN ([1]; B4 po (gavage) 50 mg/kg, serum): 50.1 ± 5.38 mg/dL
Crea ([1]; B4 po (gavage) 50 mg/kg, serum): 30.28 ± 4.77 µmol/L
TP ([1]; B4 po (gavage) 50 mg/kg, serum): 47.69 ± 3.17 g/L
Urine protein ([1]; B4 po (gavage) 50 mg/kg, urine): 1.37 ± 0.31 mg/mL
Crea [1, 5]: 28.17 ± 3.01 µmol/L
TP [1, 5]: 48.15 ± 3.68 g/L
Urine protein ([1]; B4 po (gavage) 100 mg/kg, urine): 1.19 ± 0.25 mg/mL
Reduction of effective dose to reverse cisplatin-induced renal injury, injection compared with oral administration [1]: at least 20 times
Reduction of effective dose to reverse cisplatin-induced renal injury, injection compared with oral administration ([1]; listed as Pulsatilla saponin B4): 20 times
water solubility [2]: good water solubility
Purity (%) [3, 6]: 99.10%
Related substances (%) Max single impurity [3, 6]: 0.40%
Related substances (%) Total impurities [3, 6]: 0.65%
Content (%) 40° C. ([3]; day 7, 40° C.): 98.96%
Related substances (%) 40° C. Max single impurity ([3]; day 7, 40° C.): 0.40%
Related substances (%) 40° C. Total impurities ([3]; day 7, 40° C.): 0.64%
Content (%) 60° C. ([3]; day 7, 60° C.): 98.93%
Related substances (%) 60° C. Max single impurity ([3]; day 7, 60° C.): 0.41%
Related substances (%) 60° C. Total impurities ([3]; day 7, 60° C.): 0.66%
Content (%) illumination [3, 7]: 98.97%
Related substances (%) illumination Max single impurity [3, 7]: 0.40%
Related substances (%) illumination Total impurities [3, 7]: 0.64%
Content (%) 40° C. ([3]; day 14, 40° C.): 98.86%
Related substances (%) 40° C. Max single impurity ([3]; day 14, 40° C.): 0.41%
Related substances (%) 40° C. Total impurities ([3]; day 14, 40° C.): 0.63%
Content (%) 60° C. ([3]; day 14, 60° C.): 98.89%
Related substances (%) 60° C. Max single impurity ([3]; day 14, 60° C.): 0.41%
Related substances (%) 60° C. Total impurities ([3]; day 14, 60° C.): 0.64%
Content (%) illumination [3, 8]: 98.95%
Related substances (%) illumination Max single impurity [3, 8]: 0.42%
Related substances (%) illumination Total impurities [3, 8]: 0.64%

C[C@@H]1C[C@H]2[C@@H]3CCC4=CC(=O)C=C[C@]4(C)[C@@]3(F)[C@@H](O)C[C@]2(C)[C@@]1(O)C(=O)CO [Positive control, Dexamethasone, reference compound]
BUN [1, 9]: 42.97 ± 27.45 mg/dL
Crea [1, 9]: 30.10 ± 3.93 µmol/L
TP [1, 9]: 52.90 ± 2.50 g/L
BUN ([1]; dexamethasone 0.5 mg/kg by gavage, serum 1 h after last administration, listed as positive control): decreased significantly
Urine protein ([1]; dexamethasone 0.5 mg/kg by gavage, urine 0.5 h after last administration): 1.00 ± 0.27 mg/mL
Urine protein ([1]; dexamethasone 0.5 mg/kg by gavage, urine 0.5 h after last administration, listed as positive control): decreased significantly
